Measurements taken from ChEMBL document CHEMBL1201862, “PubChem BioAssay data set” (2004).
Calls of active or inactive are those of the source.

Tests used:
[1] = biological target: Serine/threonine-protein kinase D2 (Homo sapiens, UniProt Q9BZL6); type: functional;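 note: measured against PRKD2 as one member of a kinome-wide kinase profiling panel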
[2] = biological target: Dual specificity protein kinase CLK2 (Homo sapiens, UniProt P49760); type: functional
[3] = biological target: Serine/threonine-protein kinase pim-2 (Homo sapiens, UniProt Q9P1W9); type: functional;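 note: value comes from a broad kinase panel profiling study in which PIM2 was one of the panel members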
Serine/threonine-protein kinase pim-2, sequence (Q9P1W9 whole entry): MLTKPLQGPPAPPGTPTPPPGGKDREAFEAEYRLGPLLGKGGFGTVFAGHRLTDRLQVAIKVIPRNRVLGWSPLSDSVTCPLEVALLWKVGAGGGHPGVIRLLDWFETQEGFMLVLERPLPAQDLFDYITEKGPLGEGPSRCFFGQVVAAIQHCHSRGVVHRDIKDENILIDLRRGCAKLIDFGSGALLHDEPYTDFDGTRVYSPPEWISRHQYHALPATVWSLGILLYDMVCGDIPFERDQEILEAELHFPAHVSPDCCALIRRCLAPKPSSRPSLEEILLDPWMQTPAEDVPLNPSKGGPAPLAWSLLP

[4] = biological target: Serine/threonine-protein kinase D3 (Homo sapiens, UniProt O94806); type: functional;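 note: determined within a kinase panel screen, with PRKCN as the panel member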
Serine/threonine-protein kinase D3, sequence (O94806 whole entry): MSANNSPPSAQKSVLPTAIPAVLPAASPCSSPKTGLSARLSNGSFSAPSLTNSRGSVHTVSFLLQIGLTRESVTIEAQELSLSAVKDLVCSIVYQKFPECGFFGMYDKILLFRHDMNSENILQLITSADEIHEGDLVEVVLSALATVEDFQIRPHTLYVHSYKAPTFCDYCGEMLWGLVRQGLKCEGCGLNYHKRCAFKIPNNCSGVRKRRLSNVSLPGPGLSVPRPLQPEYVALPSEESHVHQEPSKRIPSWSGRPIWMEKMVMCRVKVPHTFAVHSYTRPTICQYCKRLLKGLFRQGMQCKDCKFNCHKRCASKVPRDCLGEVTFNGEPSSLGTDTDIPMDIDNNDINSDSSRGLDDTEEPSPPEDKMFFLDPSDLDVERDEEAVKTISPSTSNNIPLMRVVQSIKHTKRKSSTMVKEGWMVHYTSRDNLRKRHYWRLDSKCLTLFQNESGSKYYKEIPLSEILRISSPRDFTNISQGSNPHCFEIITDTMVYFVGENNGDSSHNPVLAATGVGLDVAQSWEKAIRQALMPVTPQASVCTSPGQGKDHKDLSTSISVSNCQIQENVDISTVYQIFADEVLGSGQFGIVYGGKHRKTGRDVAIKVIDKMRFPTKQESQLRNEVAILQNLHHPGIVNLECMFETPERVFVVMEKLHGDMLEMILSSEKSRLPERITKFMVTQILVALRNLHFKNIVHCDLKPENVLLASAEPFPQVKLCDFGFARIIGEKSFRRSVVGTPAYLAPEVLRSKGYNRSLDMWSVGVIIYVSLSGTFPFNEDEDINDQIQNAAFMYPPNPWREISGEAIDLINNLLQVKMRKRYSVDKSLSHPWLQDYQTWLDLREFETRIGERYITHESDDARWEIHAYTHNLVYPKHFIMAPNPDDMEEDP

[5] = biological target: Dual specificity tyrosine-phosphorylation-regulated kinase 1A (Homo sapiens, UniProt Q13627); type: functional;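 note: measured against DYRK1A as one member of a broad kinome profiling panel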
[6] = viability loss in HEK293 cells – cell-based, plate reader, cherry-picked samples, cytotoxicity control, dose response (AID 743446); type: functional
[7] = A549 cell cytotoxicity, dose response, cytotoxicity control, plate reader, cherry-pick, antagonist series (AID 743412); type: functional, cell-based
[8] = Luminescence Cell-Based Dose Response HTS to Identify Inhibitors of 5'UTR Stem-Loop Driven Prion Protein mRNA Translation in H4 Neuroglioblastoma Cells. [Related pubchem assays: 1827 (Project Summary), 1813 (Primary HTS)]; type: functional
[9] = DRD fibroblast viability loss – cell-based, non-viral oncogenic, luminescence, dose response (AID 1934); type: functional; conditions: Homo sapiens
[10] = toxicity toward HepG2 liver cells – cell-based, plate reader, cherry-pick, antagonist series, cytotoxicity control, dose response (AID 743416); type: functional
[11] = viability loss of HPDE-C7K cells – cell-based, fluorescence, HTS, primary screen (AID 431); type: functional; conditions: Homo sapiens
[12] = cAMP pathway inhibition in counterscreen cell line – TR-FRET cAMP detection, counter-screen for MC4R biased antagonist project, dose response (AID 602305); type: functional, cell-based;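 note: U2OS cells stimulated with forskolin near its EC80 as the cAMP inducer; potency is for inhibition of forskolin-stimulated cAMP signaling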
[13] = alpha-synuclein stem-loop luciferase translation blockers – H4 neuroglioma cells, luminescence, confirmation (AID 1988); type: functional, cell-based
[14] = HPDE-C7 pancreatic duct cell viability loss – fluorescence, HTS (AID 430); type: functional, cell-based; conditions: Homo sapiens
[15] = test system: BJ; experiment: BJ-TERT-LT-ST fibroblast viability loss – cell-based, RAS-independent, luminescence, dose response (AID 1935); type: functional; conditions: Homo sapiens;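 note: BJ fibroblasts immortalized with TERT plus LT and ST oncogenes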
[16] = test system: BJ; experiment: BJ-TERT fibroblast viability loss – cell-based, RAS-independent, luminescence, dose response (AID 1933); type: functional; conditions: Homo sapiens
[17] = blockade of melanocortin 4 receptor signaling – cell-based, plate reader, cherry pick, counter-screen for LGR2 antagonist project, dose response (AID 743444); type: functional;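 note: transfected HEK 293 cells stimulated with alpha-MSH peptide; potency of inhibitors of the alpha-MSH evoked signal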
[18] = biological target: Melanocortin receptor 4 (Homo sapiens, UniProt P32245); experiment: inhibitors of MC4R cAMP signaling – cell-based, TR-FRET, biased antagonists, dose response (AID 602298); type: functional;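 note: antagonist potency against agonist-stimulated cAMP production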
Melanocortin receptor 4, sequence (P32245 whole entry): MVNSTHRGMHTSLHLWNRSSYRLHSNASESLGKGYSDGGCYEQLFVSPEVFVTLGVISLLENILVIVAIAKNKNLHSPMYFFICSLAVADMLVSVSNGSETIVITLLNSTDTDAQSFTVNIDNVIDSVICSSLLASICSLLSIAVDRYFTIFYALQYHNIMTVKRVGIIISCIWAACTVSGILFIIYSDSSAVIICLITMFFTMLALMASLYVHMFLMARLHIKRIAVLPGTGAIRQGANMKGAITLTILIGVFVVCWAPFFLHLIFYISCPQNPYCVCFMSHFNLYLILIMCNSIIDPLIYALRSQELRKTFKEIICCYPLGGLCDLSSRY

[19] = test system: BJ; experiment: cells; type: functional, cell-based; conditions: Homo sapiens
[20] = blockers of bursicon-stimulated LGR2 cAMP reporter – cell-based, HEK293, CRE-luciferase reporter, cherry pick, set 2, dose response (AID 743343); type: functional;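 note: transfected cells were stimulated with diluted bursicon conditioned medium after compound addition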
[21] = reduced cellular PGC1a acetyl-lysine signal – cell-based, cherry-picked samples, dose response (AID 720514); type: functional;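 note: potency may reflect raised or lowered acetylation signal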
[22] = luciferase reporter signal suppression in cells – H4 neuroglioma cells, luminescence, dose response (AID 1990); type: functional, cell-based
[23] = biological target: T1, High affinity choline transporter 1 (Homo sapiens, UniProt Q9GZV3); experiment: human choline transporter blockers, potency – cell-based, 5-point CRC, membrane potential dye, dose response (AID 504840); type: functional
T1 sequence (Q9GZV3 whole entry): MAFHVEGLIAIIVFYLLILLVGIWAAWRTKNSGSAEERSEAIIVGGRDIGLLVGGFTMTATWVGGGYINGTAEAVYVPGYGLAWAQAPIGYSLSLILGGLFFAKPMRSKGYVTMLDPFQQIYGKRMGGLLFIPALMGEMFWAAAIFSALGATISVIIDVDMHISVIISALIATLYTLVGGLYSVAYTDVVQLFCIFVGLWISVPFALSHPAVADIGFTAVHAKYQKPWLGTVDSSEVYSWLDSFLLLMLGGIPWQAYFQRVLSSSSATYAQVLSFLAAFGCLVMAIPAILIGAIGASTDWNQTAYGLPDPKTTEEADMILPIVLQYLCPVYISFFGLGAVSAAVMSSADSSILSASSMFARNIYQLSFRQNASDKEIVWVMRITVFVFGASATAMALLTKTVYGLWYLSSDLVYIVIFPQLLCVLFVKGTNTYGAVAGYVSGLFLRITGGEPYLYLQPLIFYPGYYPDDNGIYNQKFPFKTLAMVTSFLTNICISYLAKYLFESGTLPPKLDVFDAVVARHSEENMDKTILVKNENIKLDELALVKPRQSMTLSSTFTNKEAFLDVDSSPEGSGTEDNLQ

[24] = biological target: T2, Calpain-2 catalytic subunit (Sus scrofa, UniProt P43367); experiment: m-calpain protease blockers, concentration series – biochemical, fluorogenic peptide substrate, dose response (AID 1420); type: functional
T2 sequence (P43367 whole entry): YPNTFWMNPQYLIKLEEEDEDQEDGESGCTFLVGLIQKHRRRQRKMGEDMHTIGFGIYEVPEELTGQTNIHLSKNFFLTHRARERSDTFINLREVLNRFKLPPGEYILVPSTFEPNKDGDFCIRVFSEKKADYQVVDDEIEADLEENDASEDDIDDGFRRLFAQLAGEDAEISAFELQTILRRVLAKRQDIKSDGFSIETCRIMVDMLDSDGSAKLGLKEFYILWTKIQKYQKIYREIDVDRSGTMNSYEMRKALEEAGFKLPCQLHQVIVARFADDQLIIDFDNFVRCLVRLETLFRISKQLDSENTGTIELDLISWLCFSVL

[25] = biological target: T1, High affinity choline transporter 1; experiment: human choline transporter blockers, potency – cell-based, 10-point CRC, membrane potential dye, dose response (AID 588401); type: functional;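 note: membrane potential dye fluorescence of choline-evoked depolarization via CHT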

Dual specificity protein kinase CLK2, sequence (P49760 whole entry): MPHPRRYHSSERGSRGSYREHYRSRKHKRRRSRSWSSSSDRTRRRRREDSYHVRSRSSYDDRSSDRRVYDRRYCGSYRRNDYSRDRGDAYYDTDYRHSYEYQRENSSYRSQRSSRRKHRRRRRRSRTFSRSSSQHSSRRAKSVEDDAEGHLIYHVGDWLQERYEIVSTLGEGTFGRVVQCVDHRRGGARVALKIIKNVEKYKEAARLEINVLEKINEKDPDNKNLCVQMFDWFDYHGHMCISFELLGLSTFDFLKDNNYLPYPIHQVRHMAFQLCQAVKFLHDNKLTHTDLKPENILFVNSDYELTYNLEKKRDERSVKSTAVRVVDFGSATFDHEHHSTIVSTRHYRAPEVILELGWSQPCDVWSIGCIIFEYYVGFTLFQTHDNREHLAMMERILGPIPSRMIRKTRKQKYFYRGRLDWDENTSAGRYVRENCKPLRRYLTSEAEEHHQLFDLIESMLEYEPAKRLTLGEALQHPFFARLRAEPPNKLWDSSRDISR
Serine/threonine-protein kinase D2, sequence (Q9BZL6 whole entry): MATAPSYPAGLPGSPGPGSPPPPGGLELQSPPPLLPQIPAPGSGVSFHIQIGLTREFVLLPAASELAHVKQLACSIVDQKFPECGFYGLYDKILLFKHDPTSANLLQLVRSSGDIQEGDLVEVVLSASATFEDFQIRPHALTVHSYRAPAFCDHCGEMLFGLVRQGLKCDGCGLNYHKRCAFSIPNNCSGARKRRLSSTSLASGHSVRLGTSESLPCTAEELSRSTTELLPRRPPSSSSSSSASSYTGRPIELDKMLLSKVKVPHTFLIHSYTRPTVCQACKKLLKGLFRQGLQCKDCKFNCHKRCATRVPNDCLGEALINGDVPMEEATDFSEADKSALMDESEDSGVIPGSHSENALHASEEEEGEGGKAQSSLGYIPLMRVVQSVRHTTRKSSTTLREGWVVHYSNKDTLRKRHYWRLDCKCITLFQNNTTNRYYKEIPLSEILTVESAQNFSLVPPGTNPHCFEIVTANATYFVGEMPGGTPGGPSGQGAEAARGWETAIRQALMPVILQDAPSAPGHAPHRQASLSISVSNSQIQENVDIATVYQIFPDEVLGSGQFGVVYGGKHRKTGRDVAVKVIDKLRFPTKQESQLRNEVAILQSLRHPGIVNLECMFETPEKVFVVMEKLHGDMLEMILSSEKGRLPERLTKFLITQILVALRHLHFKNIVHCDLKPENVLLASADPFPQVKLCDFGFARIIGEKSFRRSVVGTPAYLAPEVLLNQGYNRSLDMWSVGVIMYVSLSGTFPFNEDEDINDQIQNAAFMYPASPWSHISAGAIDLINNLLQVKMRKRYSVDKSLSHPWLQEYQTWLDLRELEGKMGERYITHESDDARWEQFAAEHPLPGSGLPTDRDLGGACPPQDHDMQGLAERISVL

For `Cn1ccc2c(-c3ccccc3F)nc(N(C(N)=O)c3c(F)cccc3F)nc21`, the Ki [1] was 3.16 µM (active), the Ki [2] was 7.94 µM (active) and the Ki [3] was 1.26 µM (active). For the same molecule, the Ki [4] was 2 µM (active) and the Ki [5] was 3.16 µM (active).

With `C[S+]([O-])c1nc(-c2ccc(Br)cc2)cc(-c2ccccc2)c1C#N` (stereo not given) the AC50 [6] was 7.73 µM (active), the AC50 [7] was 3.25 µM (active) and the EC50 [8] was 5.38 µM (active). The EC50 [9] was 2.91 µM (active), the AC50 [10] was 11.2 µM (active) and the EC50 [11] was 2.18 µM (active). The IC50 [12] was > 64.6 µM (inactive), the EC50 [13] was 3.41 µM (active) and the EC50 [14] was 1.78 µM (active). For the same molecule, the EC50 [15] was 2.41 µM (active), the EC50 [16] was 3.04 µM (active) and the AC50 [17] was 25.1 µM (active). For the same molecule, the IC50 [18] was 1.28 µM (active), the EC50 [19] was 5.13 µM (active) and the AC50 [20] was 19.8 µM (active). The AC50 [21] was 5.21 µM (active) and the EC50 [22] was 7.72 µM (active).

With `CC(C)CCN=C(S)Nc1ccc([N+](=O)[O-])cc1` the IC50 [23] was 9.34 µM (active), the IC50 [24] was > 50 µM (not active) and the IC50 [25] was 8.43 µM (active).
